Laboratory results published in PubChem BioAssay (NCI).
Values joined by “and” are separate entries in the source; they are usually repeats but may differ in a detail not shown here. Identical values can stand only once.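 Grown in 96-well plates, cells were treated for 48 hours with each compound at five concentrations. Insufficient inhibition: endpoint recorded as highest concentration tested. GI50 marks 50% less growth. TGI marks complete inhibition of growth.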

Key:
Experiment in all cases: NCI tumour cell line growth inhibition, 48 h
LOX IMVI melanoma = test system: LOX IMVI melanoma
SW-620 colon = test system: SW-620 colon
DLD-1 colon = test system: DLD-1 colon
SK-MEL-5 melanoma = test system: SK-MEL-5 melanoma
TK-10 renal = test system: TK-10 renal
MALME-3M melanoma = test system: MALME-3M melanoma
CCRF-CEM leukemia = test system: CCRF-CEM leukemia
EKVX NSCLC = test system: EKVX NSCLC
SNB-78 CNS = test system: SNB-78 CNS
OVCAR-3 ovarian = test system: OVCAR-3 ovarian

SMILES	TGI (LOX IMVI melanoma)	TGI (SW-620 colon)	TGI (DLD-1 colon)	TGI (SK-MEL-5 melanoma)	TGI (TK-10 renal)	TGI (MALME-3M melanoma)	TGI (CCRF-CEM leukemia)	TGI (EKVX NSCLC)	TGI (SNB-78 CNS)	TGI (OVCAR-3 ovarian)	GI50 (LOX IMVI melanoma)	GI50 (SW-620 colon)	GI50 (DLD-1 colon)	GI50 (MALME-3M melanoma)	GI50 (CCRF-CEM leukemia)	GI50 (SNB-78 CNS)	GI50 (OVCAR-3 ovarian)	GI50 (SK-MEL-5 melanoma)	GI50 (EKVX NSCLC)
O=C1/C(=C/c2ccc(Cl)cc2)COc2ccc(Br)cc21	> 100 µM	> 100 µM	> 100 µM	> 100 µM	> 100 µM	> 100 µM	> 100 µM	> 100 µM	> 100 µM	> 100 µM									
O=[N+]([O-])C1(CO)COC2(OC1)c1ccccc1-c1ccccc12	67.7 µM	44.5 µM	> 89.1 µM	> 100 µM	> 100 µM	73.9 µM	71 µM	> 100 µM	> 100 µM	> 100 µM									
CC1CC(=O)CC[C@@H]1OCc1ccccc1 (some centres undefined)	> 100 µM	> 100 µM	> 100 µM	> 100 µM	> 100 µM	> 100 µM	> 100 µM	> 100 µM	> 100 µM	> 100 µM									
COc1ccc(CN[C@H]2CCc3cc(OC)c(OC)c(OC)c3-c3ccc(SC)c(=O)cc32)c(OC)c1OC	15.7 µM	> 100 µM	> 100 µM	0.257 µM	> 100 µM	> 100 µM	5.46 µM	> 100 µM	> 100 µM	0.0618 µM and 0.028 µM	< 0.01 µM	< 0.01 µM	< 0.01 µM	< 0.01 µM	0.0107 µM	< 0.01 µM	< 0.01 µM		
BrCC[N+]12CCCN1CCC2	27 µM	7.39 µM	14.1 µM	34.3 µM	27.9 µM	5.2 µM	4.87 µM	38 µM	37.5 µM	30.9 µM									
COc1ccc2nc(NC(=O)C(=O)C(C#N)c3ccc(CC#N)cc3)sc2c1 (centres undefined)	> 100 µM	> 100 µM	> 100 µM	> 100 µM	> 100 µM	> 100 µM	> 100 µM	> 100 µM	> 100 µM	> 100 µM									
CCc1cc2c(c3[nH]ccc13)[C@@H](C)C[C@H]2C	25.3 µM	41 µM	36.3 µM	31.9 µM	36.8 µM	35.4 µM	43.4 µM	44.6 µM	34.6 µM	37.1 µM									
CC(C)N(C(=O)C12C3C4C5C3C1(C(=O)N(C(C)C)C(C)C)C5C42)C(C)C (centres undefined)	> 69.5 µM	> 88.2 µM	> 64.3 µM	> 100 µM	> 100 µM	> 100 µM	> 68.3 µM	> 100 µM	> 100 µM	> 100 µM									
CCCCCCCC(=O)O[C@H]1[C@H]2[C@@H](CC1(C)C)C(=O)[C@]13O[C@H]1C(=O)[C@]1(CO1)[C@]23C	5.63 µM and 5.48 µM	3.27 µM and 2.74 µM	3.6 µM and 7.46 µM	29.9 µM and 10.5 µM	6.47 µM	10.9 µM and 6.34 µM	3.57 µM and 1.58 µM	62.1 µM and 10 µM	26.6 µM and 13.5 µM	4.55 µM and 6.02 µM	2.16 µM	1.39 µM			0.593 µM	12.1 µM	2.37 µM	15.3 µM	36.9 µM
O=C(O)CNCc1c2ccccc2nc2ccccc12	> 100 µM	> 100 µM	> 100 µM	> 60.4 µM	> 100 µM	> 100 µM	41.2 µM	> 100 µM	> 100 µM	> 100 µM									
CC1(C)CC(=O)C=C(NC(=O)c2ccccc2)C1	> 100 µM	> 100 µM	> 100 µM	> 100 µM	> 100 µM	> 100 µM	> 100 µM	> 100 µM	> 100 µM	> 100 µM									
O=C1CCC(=O)C(C(=O)CCC(=O)Nc2ccc(Cl)cc2)C1 (centres undefined)	> 100 µM	> 100 µM	> 100 µM	> 100 µM	> 100 µM	> 100 µM	> 100 µM	> 100 µM	> 100 µM	> 100 µM									
